Results: ChEMBL document CHEMBL5393456, “Dichlorophenol hsd17b13 inhibitors and uses thereof” (2022)

target: T1, 17-beta-hydroxysteroid dehydrogenase 13 (Homo sapiens, UniProt Q7Z5P4); assay: Inhibition of His-tagged HSD17B13 (unknown origin) expressed in Escherichia coli using estradiol as substrate incubated for 2 hrs and measured by LC/MS estrone detection assay
T1 sequence (Q7Z5P4 whole entry): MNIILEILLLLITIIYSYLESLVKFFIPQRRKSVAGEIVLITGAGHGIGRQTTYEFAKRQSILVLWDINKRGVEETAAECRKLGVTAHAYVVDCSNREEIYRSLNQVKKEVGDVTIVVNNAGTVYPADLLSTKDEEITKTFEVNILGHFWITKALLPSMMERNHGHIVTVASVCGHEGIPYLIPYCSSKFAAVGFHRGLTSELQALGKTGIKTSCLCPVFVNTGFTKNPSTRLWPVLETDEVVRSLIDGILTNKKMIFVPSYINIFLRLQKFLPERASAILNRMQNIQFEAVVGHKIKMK

| SMILES | IC50 |
| --- | --- |
| Cc1ccc(NC(=O)c2cc(Cl)c(O)c(Cl)c2)c2c(=O)n(Cc3ccccc3OC(F)(F)F)c(C(F)F)nc12 | ≤ 100 nM |
| O=C(Nc1scnc1C(=O)NCc1ccccc1OC(F)(F)F)c1cc(Cl)c(O)c(Cl)c1 | ≤ 100 nM |
| Cc1nc2c(Cl)ccc(NC(=O)c3cc(Cl)c(O)c(Cl)c3)c2c(=O)n1Cc1ccccc1C(F)(F)F | ≤ 100 nM |
| O=C(Nc1ccc(F)c2ncn(Cc3ccccc3C(F)(F)F)c(=O)c12)c1cc(Cl)c(O)c(Cl)n1 | ≤ 100 nM |
| COc1ccccc1CCNC(=O)c1sccc1NC(=O)c1cc(Cl)c(O)c(Cl)c1 | ≤ 100 nM |
| O=C(Nc1cccc2ncn(Cc3ccccc3-c3ccccn3)c(=O)c12)c1cc(Cl)c(O)c(Cl)c1 | ≤ 500 nM |
| Cc1ccc(NC(=O)c2cc(Cl)c(O)c(Cl)c2)c2c(=O)n(Cc3ccccc3C(F)(F)F)c(C(F)F)nc12 | ≤ 100 nM |
| O=C(Nc1cccc2ncn(Cc3ncccc3Cl)c(=O)c12)c1cc(Cl)c(O)c(Cl)c1 | ≤ 100 nM |
| O=C(Nc1ccc(Cl)c2ncn(Cc3ccccc3OC(F)(F)F)c(=O)c12)c1cc(Cl)c(O)c(Cl)c1 | ≤ 100 nM |
| Cc1ccc(NC(=O)c2cc(Cl)c(O)c(Cl)c2)c2c(=O)n(Cc3ncccc3C(F)(F)F)c(C)nc12 | ≤ 100 nM |
| Cc1ccc(NC(=O)c2cc(Cl)c(O)c(Cl)n2)c2c(=O)n(Cc3ccccc3OC(F)(F)F)c(C)nc12 | ≤ 100 nM |
| CN(C)CCOc1ccc(NC(=O)c2cc(Cl)c(O)c(Cl)c2)c(C(=O)NCc2ccccc2OC(F)(F)F)c1 | > 10000 nM |
| Cc1ccc(NC(=O)c2cc(Cl)c(O)c(Cl)c2)c2c(=O)n([C@@H]3CC[C@H]3c3ccccc3)c(C)nc12 | ≤ 100 nM |
| O=C(Nc1cccc2ncn(Cc3cccc(F)c3)c(=O)c12)c1cc(Cl)c(O)c(Cl)n1 | ≤ 100 nM |
| O=C(Nc1cccc2ncn(Cc3ccccc3F)c(=O)c12)c1cc(Cl)c(O)c(Cl)n1 | ≤ 100 nM |
| O=C(NCc1ccccc1OC(F)(F)F)C1CCCN1C(=O)c1cc(Cl)c(O)c(Cl)n1 (stereo not drawn) | > 10000 nM |
| [2H]C([2H])(c1ccccc1C(F)(F)F)n1c(C)nc2c(C)ccc(NC(=O)c3cc(Cl)c(O)c(Cl)c3)c2c1=O | ≤ 100 nM |
| O=C(Nc1cccc2ncn(Cc3cccc(C(F)(F)F)c3)c(=O)c12)c1cc(Cl)c(O)c(Cl)c1 | ≤ 100 nM |
| O=C(Nc1cccc2ncn(Cc3ccccc3C(F)(F)F)c(=O)c12)c1cc(Cl)c(O)c(Cl)n1 | ≤ 100 nM |
| Cc1ccc(NC(=O)c2cc(Cl)c(O)c(Cl)c2)c2c(=O)n(Cc3ccccc3OC(F)(F)F)c(C)nc12 | ≤ 100 nM |
| O=C(Nc1scnc1C(=O)NCc1cccc(F)c1)c1cc(Cl)c(O)c(Cl)c1 | ≤ 100 nM |

| SMILES | IC50 |
| --- | --- |
| Cc1ccc(NC(=O)c2cc(Cl)c(O)c(Cl)c2)c2c(=O)n(Cc3ccccc3OC(F)(F)F)cnc12 | ≤ 100 nM |
| Cn1nc(CNC(=O)c2ncsc2NC(=O)c2cc(Cl)c(O)c(Cl)c2)c2ccccc21 | ≤ 100 nM |
| O=C(Nc1cccc2ncn(Cc3ccccc3N3CCOCC3)c(=O)c12)c1cc(Cl)c(O)c(Cl)c1 | ≤ 100 nM |
| O=C(Nc1cc(Cl)sc1C(=O)NCCc1ccccc1OC(F)(F)F)c1cc(Cl)c(O)c(Cl)c1 | ≤ 500 nM |
| O=C(Nc1ccc(F)c2ncn(Cc3ccccc3OC(F)(F)F)c(=O)c12)c1cc(Cl)c(O)c(Cl)c1 | ≤ 100 nM |
| O=C(Nc1cccc2ncn(C(c3ccccc3)c3ccccc3)c(=O)c12)c1cc(Cl)c(O)c(Cl)c1 | ≤ 100 nM |
| O=C(Nc1cccc2ncn(Cc3ccn(-c4ccccc4F)n3)c(=O)c12)c1cc(Cl)c(O)c(Cl)c1 | ≤ 100 nM |
| Cn1nc(Cn2cnc3cccc(NC(=O)c4cc(Cl)c(O)c(Cl)c4)c3c2=O)c2ccccc21 | ≤ 100 nM |
| Cc1nc2c(F)ccc(NC(=O)c3cc(Cl)c(O)c(Cl)c3)c2c(=O)n1Cc1nn(C)c2ccccc12 | ≤ 100 nM |
| [2H]C([2H])([2H])c1nc2c(C)ccc(NC(=O)c3cc(Cl)c(O)c(Cl)n3)c2c(=O)n1Cc1ccccc1OC(F)(F)F | ≤ 100 nM |
| O=C(Nc1cccc2ncn(Cc3cccnc3C(F)(F)F)c(=O)c12)c1cc(Cl)c(O)c(Cl)c1 | ≤ 100 nM |
| N#Cc1ccccc1Cn1cnc2cccc(NC(=O)c3cc(Cl)c(O)c(Cl)c3)c2c1=O | ≤ 100 nM |
| O=C(Nc1ccc(F)c2ncn(Cc3ccccc3C(F)(F)F)c(=O)c12)c1cc(Cl)c(O)c(Cl)c1 | ≤ 100 nM |
| O=C(Nc1cc(Cl)sc1C(=O)NCc1ccccc1OC(F)(F)F)c1cc(Cl)c(O)c(Cl)c1 | ≤ 100 nM |
| O=C(Nc1scnc1C(=O)NCc1ccccc1OC(F)(F)F)c1cc(Cl)c(O)c(Cl)n1 | ≤ 100 nM |
| Cc1nc2c(F)ccc(NC(=O)c3cc(Cl)c(O)c(Cl)c3)c2c(=O)n1Cc1ncccc1C(F)(F)F | ≤ 100 nM |
| Cc1ccc(NC(=O)c2cc(Cl)c(O)c(Cl)n2)c2c(=O)n(Cc3ccccc3OC(F)(F)F)c(C(F)F)nc12 | ≤ 100 nM |
| O=C(NCc1ccccc1OC(F)(F)F)C1CCCN1C(=O)c1cc(Cl)c(O)c(Cl)c1 (stereo not drawn) | > 10000 nM |
| Cc1ccc(NC(=O)c2cc(Cl)c(O)c(Cl)c2)c2c(=O)n(Cc3ccccc3C(F)(F)F)c(C)nc12 | ≤ 100 nM |
| NS(=O)(=O)c1ccccc1Cn1cnc2cccc(NC(=O)c3cc(Cl)c(O)c(Cl)c3)c2c1=O | > 10000 nM |
| C[C@@H](c1cccc(F)c1)n1cnc2cccc(NC(=O)c3cc(Cl)c(O)c(Cl)c3)c2c1=O | ≤ 100 nM |

| SMILES | IC50 |
| --- | --- |
| O=C(Nc1cccc2ncn(Cc3n[nH]c4ccccc34)c(=O)c12)c1cc(Cl)c(O)c(Cl)c1 | ≤ 100 nM |
| O=C(N[C@H]1CCCC[C@@H]1C(=O)NCc1ccccc1OC(F)(F)F)c1cc(Cl)c(O)c(Cl)n1 | > 10000 nM |
| O=C(Nc1cccc2ncn(Cc3ccc(C(F)(F)F)cc3)c(=O)c12)c1cc(Cl)c(O)c(Cl)c1 | ≤ 100 nM |
| Cc1nc2cccc(NC(=O)c3cc(Cl)c(O)c(Cl)c3)c2c(=O)n1Cc1ccccc1OC(F)(F)F | ≤ 100 nM |
| Cn1c(=O)n(Cc2ccccc2OC(F)(F)F)c(=O)c2c(NC(=O)c3cc(Cl)c(O)c(Cl)c3)cccc21 | ≤ 100 nM |
| O=C(Nc1cccc2ncn(Cc3cccc(OC(F)(F)F)c3)c(=O)c12)c1cc(Cl)c(O)c(Cl)c1 | ≤ 100 nM |
| Cc1nc2c(F)ccc(NC(=O)c3cc(Cl)c(O)c(Cl)n3)c2c(=O)n1Cc1ccccc1OC(F)(F)F | ≤ 100 nM |
| O=C(Nc1cccc2ncn(Cc3ncccc3C(F)(F)F)c(=O)c12)c1cc(Cl)c(O)c(Cl)c1 | ≤ 100 nM |
| O=C(Nc1cccc2ncn(Cc3ccccc3OC(F)(F)F)c(=O)c12)c1cc(Cl)c(O)c(Cl)c1 | ≤ 100 nM |
| O=C(Nc1cccc2ncn(Cc3ccccc3C(F)(F)F)c(=O)c12)c1cc(Cl)c(O)c(Cl)c1 | ≤ 100 nM |
| [2H]C([2H])([2H])c1nc2c(C)ccc(NC(=O)c3cc(Cl)c(O)c(Cl)c3)c2c(=O)n1Cc1ccccc1C(F)(F)F | ≤ 100 nM |
| O=C(Nc1scnc1C(=O)NCc1ccccc1C(F)(F)F)c1cc(Cl)c(O)c(Cl)c1 | ≤ 100 nM |
| Cc1nsc(NC(=O)c2cc(Cl)c(O)c(Cl)c2)c1C(=O)N[C@@H](C)c1ccccc1F | ≤ 100 nM |
| Cc1nc2c(F)ccc(NC(=O)c3cc(Cl)c(O)c(Cl)c3)c2c(=O)n1Cc1ccccc1OC(F)(F)F | ≤ 100 nM |
| Cc1nc2c(F)ccc(NC(=O)c3cc(Cl)c(O)c(Cl)c3)c2c(=O)n1Cc1ccccc1C(F)(F)F | ≤ 100 nM |
| Cc1nc2nccc(NC(=O)c3cc(Cl)c(O)c(Cl)c3)c2c(=O)n1Cc1ccccc1OC(F)(F)F | ≤ 100 nM |
| O=C(Nc1cccc2ncn(C3(c4ccccc4F)CC3)c(=O)c12)c1cc(Cl)c(O)c(Cl)c1 | ≤ 100 nM |
| [2H]C([2H])([2H])c1nc2c(C)ccc(NC(=O)c3cc(Cl)c(O)c(Cl)c3)c2c(=O)n1Cc1ccccc1OC(F)(F)F | ≤ 100 nM |
| C[C@@H](c1cccc(F)c1)n1cnc2cccc(NC(=O)c3cc(Cl)c(O)c(Cl)n3)c2c1=O | ≤ 100 nM |
| Cc1ccc(NC(=O)c2cc(Cl)c(O)c(Cl)c2)c2c(=O)n(Cc3ccccc3C(F)(F)F)c(CF)nc12 | ≤ 100 nM |
| C[C@H](c1cccc(F)c1)n1cnc2cccc(NC(=O)c3cc(Cl)c(O)c(Cl)c3)c2c1=O | ≤ 100 nM |
